{
  "source": "paper PMC3664642",
  "about": "“A Peptide against Soluble Guanylyl Cyclase α1: A New Approach to Treating Prostate Cancer” (PLoS ONE, 2013)",
  "key": {"[1]": {"test_system": "LNCaP xenograft tumors", "assay": "LNCaP mouse xenograft tumor study", "assay_type": "in vivo", "details": "direct intratumoral injection; three animals per treatment; P<0.0005; Fig. S8", "procedure": "[…] When tumor sizes reached 200 mm^3, 50 µL of Peptide A-8R (40 mg Peptide A-8R/Kg of animal) or Vehicle (DMSO) was directly injected into the tumors every other day. Injections were stopped after 5 times and tumors were measured every 3 days. Mice were euthanized after 3 weeks and tumors were excised. All procedures were approved by the University of Toledo Division of Lab Animal Recourses (DLAR). Protein extracts were prepared by boiling the tumor tissue in 3× SDS buffer, and evaluated by SDS-PAGE gel.\nMouse xenograft tumors derived from LNCaP cells were treated with Vehicle or Peptide A-8R, after which they were allowed to grow for an additional three weeks without treatment. Data points represent average tumor size of three animals for each treatment plus standard deviations. Note that there is a statistical difference (P<0.0005) in average tumor size for each day of tumor measurement. Arrow represents day of last injection of Vehicle or Peptide A-8R. (TIF) Click here for additional data file."}, "[2]": {"test_system": "C81 cells", "assay": "NAC rescue of proliferation of Peptide A-8R-treated cells (MTT)", "assay_type": "cell-based", "details": "50 µM vs 10 and 25 µM", "procedure": "(§1) For proliferation, cells were grown in medium containing 2% FBS extracted with dextran-coated charcoal (DCC). 48 hours later, ethanol or 1 nM R1881 was added to the cells followed by peptide treatment. The MTT assay (Sigma) was used as before to determine cell number. For apoptosis, 5000 cells were seeded in 96-well plates and treated with Vehicle (DMSO), Peptide A-8R (25 µM), Etoposide (50 µM) (Sigma) at different time points. The Caspase (3/7) activity was measured using Apo-ONE Homogeneous Caspase-3/7 assay kit (Promega). PARP cleavage was also used to measure apoptosis, and is described below.\n(§2) Intracellular ROS levels were evaluated using the fluorescent probe 5-(and-6)-chloromethyl-2′,7′-dichlorodihydrofluorescein diacetate (CM-H2DCFDA) (Invitrogen). After treatments with Peptide A-8R, C81 cells were loaded with 20 µM CM-H2DCFDA and incubated at 37°C for 30 min in the dark. Cells were then washed with PBS and fluorescence was measured at the excitation and emission wavelengths of 490 and 535 nm, respectively, using a multi-well fluorescence plate reader. For NAC (N-acetyl cysteine) (Sigma) rescue experiment, cells were pretreated with 1 or 5 mM NAC for 2 hours before adding Peptide A-8R.\n(§3) Figure 4 Peptide A-8R kills prostate cancer cells by mediating ROS generation. (A) C81 cells were treated with Vehicle or different µMolar concentrations of Peptide A-8R and without or with 0–5 mM NAC and monitored for ROS generation after 0–30 min as measured by fluorescence intensity (FI). Bar graphs represent averages of three independent experiments plus standard deviations. Note that asterisks on bar graphs found with NAC are compared to equivalent data without NAC. (B) C81 cells were treated with Vehicle or different concentrations of Peptide A-8R, as shown, and 0–5 mM NAC, as shown, and monitored for cell number after 0–6 days of incubation as measured by MTT assay. Data points represent averages of three independent experiments plus standard deviations. Asterisks indicate statistical significance (P<0.04). (C) C81 cells were treated with Vehicle or different concentrations of Peptide A-8R, as shown, and with or without 5 mM NAC, as shown, and monitored DNA damage after 1 hr incubation as measured by Comet assay."}, "[3]": {"test_system": "ROS generation in LNCaP cells", "assay": "ROS generation (CM-H2DCFDA), LNCaP/C81 cells", "assay_type": "cell-based", "details": "Fig. 4A", "procedure": "as §2, §3"}, "[4]": {"assay": "Behavior and weight of mice in the animal studies", "assay_type": "in vivo, mouse", "procedure": "(§4) 2×10^6 C81 cells in 50 µL of growth medium was mixed with 50 µL Matrigel (BD Biosciences) and injected into both flanks of 4–6-week old SCID male mice. When tumor sizes reached 200 mm^3, 50 µL of Peptide A-8R (40 mg Peptide A-8R/Kg of animal) or Vehicle (DMSO) was directly injected into the tumors every other day. Injections were stopped after 5 times and tumors were measured every 3 days. Mice were euthanized after 3 weeks and tumors were excised. All procedures were approved by the University of Toledo Division of Lab Animal Recourses (DLAR). Protein extracts were prepared by boiling the tumor tissue in 3× SDS buffer, and evaluated by SDS-PAGE gel.\nThis study was carried out in strict accordance with the recommendations in the Guide for the Care and Use of Laboratory Animals of the National Institutes of Health. The protocol was approved by the Institutional Animal Care and Use Committee of the University of Toledo (Protocol Number: 106418). During the experiments all animals were monitored daily for morbidity and all efforts were made to minimize suffering. At the end of the study all animals were euthanized using inhalation of carbon dioxide, after which surgery was performed to excise tumors from all animals."}, "[5]": {"test_system": "AKT", "assay": "Western blot of AKT in xenograft tumors", "assay_type": "in vivo", "details": "mouse xenograft tumors; Fig. S4B", "procedure": "Western blotting was performed as described using primary antibodies against sGCα1 (Cayman Chemical), pan-Akt (Cell Signaling Technology), phospho-AKT (S473, T308) (Cell Signaling Technology), phospho-PDK1 (Cell Signaling Technology), phospho-GSK-3β (Cell Signaling Technology), PARP (Cell Signaling Technology), and β-Actin (Abcam).\nas §4\nSupplementary file pone.0064189.s004.tif: Figure S4 Peptide A-mediated down-regulation of AKT is not involved in its cytotoxicity to prostate cancer cells. […] Cell number was measured after 0–6 days of incubation. […]"}, "[6]": {"test_system": "prostate cancer cells", "assay": "Cytotoxicity against prostate cancer cells (summary)", "assay_type": "cell-based", "details": "hormone-dependent and hormone-refractory prostate cancer cells", "procedure": "as §1"}},
  "note": "Entries after “also recorded” stand apart in the source; their conditions may differ. Where no end group is shown, it is not given here.",
  "data": [
    {"substance": "Ac-TFCKAFPFHIIRRRRRRRR [Peptide A-8R]", "values": [
      {"measurement": "anti-tumor activity, LNCaP xenograft", "setting": "[1]", "result": "able to stop tumor growth; also recorded: strong anti-tumor activity; also recorded: blocks the growth of LNCaP prostate tumors"},
      {"measurement": "cytotoxicity at 50 µM relative to lower concentrations", "setting": "[2]", "result": "strongest cytotoxic activity"},
      {"measurement": "ROS induction", "setting": "[3]; 0–30 min, fluorescence 490/535 nm, S5B, averages of three independent experiments", "result": "significant ROS induction in LNCaP cells within 30 minutes"},
      {"measurement": "ROS generation at 50 µM", "setting": "[3]; 50 µM", "result": "decreased with 50 µM; also recorded: minimal ROS induction; also recorded: lowest induction of ROS"},
      {"measurement": "ROS generation, concentration dependence", "setting": "[3]; 10 to 25 µM", "result": "rose when Peptide A-8R concentration was increased from 10 to 25 µM"},
      {"measurement": "effect on behavior or weight of mice", "setting": "[4]", "result": "no effect on the behavior or weight of the mice"},
      {"measurement": "effect on AKT protein level in tumors", "setting": "[5]", "result": "same negative effect on AKT protein levels; also recorded: significantly reduces AKT protein levels"},
      {"measurement": "cytotoxic activity against prostate cancer cells (summary)", "setting": "[6]", "result": "strongly cytotoxic to prostate cancer cells, rapidly inducing apoptosis; also recorded: strongly cytotoxic to sGCα1-expressing prostate cancer cells, but not to sGCα1-deficient cells; also recorded: showed the strongest activity"}
    ]}
  ]
}
